# Assay results: US8802711B2, “TRPV1 antagonists” (AbbVie Inc., priority 2011, dated 2014)
# System: Sprague-Dawley rats
# Experiment: Chronic constriction injury model of neuropathic pain
# Type: in vivo, rat
# Details: 100 μmol/kg p.o., 1 hour after dosing
# Excerpt: Adult male Sprague-Dawley rats (250-300 g body weight, Charles River Laboratories, Portage, Mich.) were used. Animal handling and experimental protocols were approved by the Institutional Animal Care and Use Committee (IACUC) at Abbott Laboratories. For all surgical procedures, animals were maintained under isoflurane anesthesia (4-5% to induce, 1-3% to maintain), and the incision sites were sterilized using a 10% povidone-iodine solution prior to and after surgeries.
# A model of chronic constriction injury-induced (CCI) neuropathic pain was produced in rats by following the method of Bennett and Xie (Pain, 1988, 33:87). Following sterilization and anesthetic procedures, a 1.5 cm incision was made dorsal to the pelvis, and the biceps femoris and gluteous superficialis (right side) were separated. The right common sciatic nerve was exposed/isolated, and loosely ligated by 4 ligatures of chromic gut (5-0) with <1 mm spacing using hemostats and forceps. […]
# Tactile allodynia was measured using calibrated von Frey filaments (Stoelting, Wood Dale, Ill.) as described in Chaplan, S. R., F. W. Bach, J. M. Pogrel, J. M. Chung and T. L. Yaksh, Quantitative assessment of tactile allodynia in the rat paw, J. Neurosci. […]
row,SMILES,% effect [%]
1,"O=C(Nc1cccc2[nH]ncc12)N[C@H]1CC[C@H](c2ccccc2)C1 [Example 14, 1-(1H-indazol-4-yl)-3-[(1S,3S)-3-phenylcyclopentyl]urea]",53
2,"O=C(Nc1cccc2[nH]ncc12)N[C@H]1CC[C@@H](c2ccccc2)C1 [Example 28, 1-(1H-indazol-4-yl)-3-[(1S,3R)-3-phenylcyclopentyl]urea]",54
